Laboratory results taken from patent publication US20200392219A1, “EXTRACELLULAR VESICLES COMPRISING MEMBRANE-TETHERED TGF-BETA, COMPOSITIONS AND METHODS OF USE THEREOF” (TRUSTEES OF TUFTS COLLEGE, priority 2017, published 2020).

How the values were obtained:
[1] = system: WJ-MSC; test: EV (exosome) output from WJ-MSC under GW4869, by nanoparticle tracking analysis; format: cell-based, canine
Description: Particle size distribution using nanoparticle tracking analysis (NTA): Samples were analyzed using a NanoSight N300 unit (Malvern) equipped with a 488 nm (blue) laser module and Nanoparticle Tracking Analysis 3.0 software. All samples were diluted in sterile PBS to a concentration of 1-10×10^8 particles/mL for analysis. Specific NTA settings were optimized for each sample, with fixed settings of temperature (23° C.), screen gain (1.0), infusion flow rate (5 μL/min), and camera level set at 12-14 depending on sample characteristics. Five videos were recorded for each sample (30-120 s video length) with all settings remaining constant within each sample source to minimize variation. […] The NTA unit was periodically evaluated for accuracy of size determination using polystyrene beads of known size (100 and 200 nm).
EV depletion and enzymatic digestion experiments: EV were isolated as described, resuspended in 5 ml PBS, and divided into 5 fractions of 1 ml each. […] The EV sediment was resuspended in PBS and particle numbers were quantified using nanoparticle tracking analysis (NTA) as described supra. […] The retentate was resuspended in 1 ml PBS, and particle content was evaluated by NTA. […] As well, WJ-MSC EV, EV (10^4:1 PBMC) from conditioned medium of non-MSC fibroblasts (canine left ventricular cardiac fibroblasts) were evaluated for suppression of PBMC.

[2] = system: CD4+ T cells (ConA-stimulated PBMC); test: ConA mitogen-induced CD4+ T cell proliferation in CFSE-stained PBMC (PBMC responder/suppression assay); format: cell-based, canine; conditions: for effect of co-added inhibitor on WJ-MSC EV mediated suppression of CD4+ T cell division: 10 μM TGF-βRI inhibitor, 50 μM ZM241385, 0.1 μg/ml neutralizing antibody
Description: Serum-free culture medium from canine Wharton's Jelly mesenchymal stem cells (WJ-MSC: CD44^+, CD90^+, CD34^−, CD45^−, MHCII^−, n=6 cell lines) was collected after 48 hours, and extracellular vesicles (WJ-EV) were isolated by differential centrifugation. WJ-EV output was assessed using single vesicle nanoparticle tracking analysis (NTA). CFSE-stained peripheral blood mononuclear cells (PBMC) were collected from healthy dogs (n=8), exposed to Concanavalin A mitogen (ConA; 5 μg/ml) and co-incubated with WJ-MSC (1:10) across transwell membrane (0.4 μm pore size) or with WJ-MSC EV (1:10^4)±10 μM SB431542 (TGFβR1 inhibitor) or TGF-β neutralizing (e.g., inhibiting) antibody (Ab) for 72 hours. Analysis of CFSE fluorescence using FlowJo (v7.6.5) yielded % CD4^+ cells that had undergone division (T-cell proliferation).
PBMC responder assay: Twelve healthy adult purpose-bread Beagle dogs (5 neutered males, 7 spayed females) housed at the Laboratory Animal Medicine department at the Cummings School of Veterinary Medicine at Tufts University served as blood donors under an approved protocol. […] or WJ-MSC were tested in triplicate against a minimum of 3 different PBMC donor cell samples (see Figure legends for ‘n’ of each experiment). Healthy status was confirmed by clinical examination, and hematological and serum biochemical testing within six months of blood sampling. All dogs were fasted for 12 hours prior to peripheral blood sampling. Peripheral blood samples were taken via jugular venipuncture using a 21 gauge needle, and blood was immediately placed into an EDTA collection tube and rotated 1-2 times gently. Blood was diluted 1:1 with cold PBS or centrifuged (1300×g, 10 min) prior to dilution 1:2 in PBS, followed by density-gradient centrifugation using Ficoll-Paque (density 1.077; GE Healthcare Life Sciences) to harvest peripheral blood mononuclear cells (PBMC). PBMC were washed in RPMI (Life Technologies) supplemented with 10% heat-inactivated fetal bovine serum (Gibco), […] (Life Technologies), 100 μM β-mercaptoethanol (Sigma-Aldrich), 10,000 U/ml penicillin-streptomycin, 2 mM L-glutamine (Life Technologies), and 2.2 mg/mL of sodium bicarbonate (Thermo Fisher Scientific) (complete RPMI, ‘cRPMI’). For mitogen induced lymphocytes proliferation assays, PBMC were suspended in 1 ml cRPMI and 0.5 μof 10 mM carboxyfluorescein succinimidyl ester (CFSE, Thermo Fisher Scientific) and were incubated (10 min). For initial characterization of WJ-MSC effects on responder PBMC, PBMC were plated on a 24-well plate on the top of a 0.4 μm Transwell (Corning) across from the WJ-MSC in a 10:1 ratio (PBMC:MSC) in a total volume of 1 ml medium (n=3 technical replicates/sample). All plates were incubated at 37° C. in the dark for 72 hours prior to analysis.
Dose-responses of TV MSC-EV: To investigate the dose response of PBMC to WJ-MSC EV, the […] were plated on a 96-well plate in cRPMI with addition of 1 mM ATP, with or without 5 μg/ml Concanavalin A (ConA, Sigma-Aldrich). Responder PBMC were incubated with WJ-MSC EV in a total volume of 200 μL medium (n=3 technical replicates per sample). PBMC were incubated with WJ-MSC EV in a 1:10^2, 1:10^3, or 1:10^4 (PBMC:EV) ratio. After 72 hours of incubation, the PBMC were collected and surface stained for CD4 (rat anti-canine CD4-Alexa 647, clone YKIX302.9, AbD Serotec). Cells were stained for 30 minutes, washed twice with cold PBS and 5% FBS, and resuspended in 200 μl PBS and 5% FBS with 5 μl 7AAD (Becton Dickinson) for analysis by flow cytometry (Accuri C6, Becton Dickinson). The effect of WJ-MSC or WJ-MSC EV on CD4-positive (CD4^+) T cell (i.e., T helper cell) proliferation (percentage of cells proliferating, number of divisions for proliferating cells) was measured by evaluating CFSE fluorescence utilizing the FlowJo® proliferation platform (FlowJo, V10, Ashland, Oreg.) after gating on the viable CD4^+ lymphocyte population. […]

Compound: O=C(/C=C/c1ccc(/C=C/C(=O)Nc2ccc(C3=NCCN3)cc2)cc1)Nc1ccc(C2=NCCN2)cc1 [GW4869]
- release of WJ-MSC-EV (particles released in 48 hours) ([1]; increasing concentrations, n=3 WJ-MSC lines): decreased
- concentration giving maximal suppression of exosome output without unacceptable loss of viability ([1]; increasing doses applied to WJ-MSC, 48 hours): 5 to 10 µM
- T cell division with WJ-MSC pre-treated with EV-release inhibitor ([2]; WJ-MSC pre-treated 48 hours at 6 μM, then across Transwell from PBMC with ConA, untreated WJ-MSC 28.2±1.4%): 51.7±13.5%

Compound: NC(=O)c1ccc(-c2nc(-c3ccc4c(c3)OCO4)c(-c3ccccn3)[nH]2)cc1 [SB431542]
- effect of co-added inhibitor on WJ-MSC EV mediated suppression of CD4+ T cell division ([2]; 72 h): significantly reduced
- % CD4+ division ([2]; Example 2, 10 μM SB431542 added to ConA+WJ-EV, ConA+WJ-EV alone 23±13%): 52±17%

Compound: Nc1nc(NCCc2ccc(O)cc2)nc2nc(-c3ccco3)nn12 [ZM241385]
- effect of co-added inhibitor on WJ-MSC EV mediated suppression of CD4+ T cell division ([2]; 72 h): significantly reduced

Compound: IFN-γ: interferon-gamma used to pre-condition WJ-MSC
- further suppression by WJ-MSC or WJ-MSC EV after pre-conditioning of WJ-MSC ([2]; WJ-MSC pretreated with 500 ng IFN-γ for 48 hours): not statistically significant

Compound: Triton-X
- effect of pre-treating WJ-MSC EV on their suppression of CD4+ T cell division ([2]; 0.1% Triton-X, 2 μg/ml RNAse A, proteinase K 30 min 37°C, heparinase 0.006 U/ml 3 hours, 10^4 EV:1 PBMC): completely abrogated

Compound: soluble TGF-β1: recombinant human TGF-β1 (R&D Systems)
- suppression of mitogen driven T cell division by exogenous TGF-β ([2]; 5 ng/ml added to ConA stimulated PBMC): not
- suppression of mitogen driven T cell division by exogenous TGF-β ([2]; 10 ng/ml added to ConA stimulated PBMC): suppressed
- suppression of mitogen driven T cell division by exogenous TGF-β ([2]; 50 ng/ml added to ConA stimulated PBMC): suppressed
- % CD4+ division (CD4+ cells that had undergone division) ([2]; Example 2, ConA 5 μg/ml, 72 h, WJ-MSC 1:10 across transwell, WJ-EV 1:10^4, ConA alone 60±17%): 21±10%
